Key:
[1] = target: Glycogen synthase kinase-3 (Sus scrofa, UniProt B2LUN4+I6LNT8); assay: Inhibition of pig GSK3alpha/beta
[2] = target: Cyclin-dependent kinase 5/CDK5 activator 1 (Homo sapiens, UniProt Q00535); assay: Inhibition of human recombinant CDK5/P25 by scintillation counting; type: protein-complex assay
[3] = target: Dual specificity tyrosine-phosphorylation-regulated kinase 1A (Homo sapiens, UniProt Q13627); assay: Inhibition of human recombinant GST-fusion DYRK1A expressed in Escherichia coli

Cyclin-dependent kinase 5/CDK5 activator 1, sequence (Q00535 whole entry, the tested form may be a part): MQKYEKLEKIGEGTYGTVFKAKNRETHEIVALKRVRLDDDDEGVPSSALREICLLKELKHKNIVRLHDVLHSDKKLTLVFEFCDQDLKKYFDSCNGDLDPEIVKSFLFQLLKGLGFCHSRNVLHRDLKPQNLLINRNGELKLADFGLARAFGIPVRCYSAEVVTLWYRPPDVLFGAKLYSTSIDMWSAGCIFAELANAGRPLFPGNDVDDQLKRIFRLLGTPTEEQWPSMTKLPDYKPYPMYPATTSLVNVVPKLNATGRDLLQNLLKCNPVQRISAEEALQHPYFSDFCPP
Cyclin-dependent kinase 5/CDK5 activator 1, sequence (Q15078 whole entry, further chain, the tested form may be a part): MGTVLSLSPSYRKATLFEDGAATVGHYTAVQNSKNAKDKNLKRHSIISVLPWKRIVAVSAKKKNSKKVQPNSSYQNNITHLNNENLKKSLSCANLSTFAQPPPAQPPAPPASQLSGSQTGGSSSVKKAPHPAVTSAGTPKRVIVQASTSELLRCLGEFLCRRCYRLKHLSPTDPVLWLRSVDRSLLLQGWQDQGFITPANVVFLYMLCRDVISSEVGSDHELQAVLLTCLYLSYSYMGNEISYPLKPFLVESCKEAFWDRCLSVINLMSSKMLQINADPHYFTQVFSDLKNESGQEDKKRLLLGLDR

Row | IC50 [1] | IC50 [2] | IC50 [3] | SMILES
1 | > 10 µM | > 10 µM | > 10 µM | CC(=O)Nc1nc2[nH]nc(NC(C)=O)c2cc1C#N
2 | > 10 µM | > 10 µM | > 10 µM | CC(=O)Nc1nn(C)c2nc(N)c(C#N)c(-c3ccccc3)c12
3 | > 10 µM | > 10 µM | > 10 µM | CC(=O)Nc1nn(C)c2nc(N)c(C#N)cc12
4 | > 10 µM | > 10 µM | > 10 µM | N#Cc1c(N2CCOCC2)nc2[nH]nc(N)c2c1-c1ccccc1
5 | > 10 µM | > 10 µM | > 10 µM | COc1nc(NN)c(C#N)c(-c2ccccc2)c1C#N
6 | > 10 µM | > 10 µM | > 10 µM | COc1nc(NNC(C)=O)c(C#N)c(-c2ccccc2)c1C#N
7 | > 10 µM | > 10 µM | > 10 µM | CC(=O)n1nc(N)c2c(-c3ccccc3)c(C#N)c(N)nc21
8 | 1.5 µM | 0.41 µM | 11 µM | N#Cc1c(N)nc2[nH]nc(N)c2c1-c1ccccc1

Continued, molecule first:

Row | SMILES | IC50 [1] | IC50 [2] | IC50 [3]
9 | Cn1nc(N)c2cc(C#N)c(N)nc21 | > 10 µM | > 10 µM | > 10 µM
10 | N#Cc1cc2c(N)n[nH]c2nc1N | > 10 µM | > 10 µM | > 10 µM
11 | Cn1nc(N)c2c(-c3ccccc3)c(C#N)c(N)nc21 | > 10 µM | > 10 µM | > 10 µM
12 | CC(=O)Nc1nc2nn(-c3ccccc3)c(NC(C)=O)c2cc1C#N | > 10 µM | > 10 µM | > 10 µM
13 | N#Cc1cc2c(N)n(-c3ccccc3)nc2nc1N | > 10 µM | > 10 µM | > 10 µM
14 | N#Cc1c(Cl)nc2[nH]nc(N)c2c1-c1ccccc1 | > 10 µM | > 10 µM | > 10 µM

— ChEMBL document CHEMBL1153477, “Synthesis and biological evaluation of 3,6-diamino-1H-pyrazolo[3,4-b]pyridine derivatives as protein kinase inhibitors” (Bioorg Med Chem Lett, 2009)
